The results in this text go back to US20210308138A1, “TISSUE TRANSGLUTAMINASE MODULATORS FOR MEDICINAL USE” (Aarhus Universitet, priority 2018, published 2021).

The test system of assay [1] is small mesenteric arteries. Briefly: Direct relaxation of U46619 pre-contracted small mesenteric arteries, concentration-response curves. The arrangement: species or system Male Wistar rats. How it is done:
The small mesenteric arteries were prepared in the same way is described in example 1.
The small mesenteric arteries were pre-contracted with the thromboxane analogue, U46619 (4·10^−7 mol/L) and concentration-response curves for TG2 specific inhibitors, LDN-27219 (10^−8-10^−5 mol/L) and Z-DON (10^−8-3·10^−4 mol/L) were constructed. To study the role of the endothelial pathways in LDN-27219 relaxation, concentration-response curves were constructed for it in arteries whose endothelium had been removed mechanically by rubbing the lumen repeatedly with a human scalp hair.

In assay [2] the test system is small subcutaneous arteries obtained from human biopsies. Briefly: Direct relaxation of human small subcutaneous arteries. As to conditions: LDN-27219 10^−8-10^−5 mol/L; hypertensive patients. The procedure: (§1) Human subcutaneous arteries were obtained from fat biopsies of the gluteal region from both male and female patients (30-70 years of age) with essential hypertension.
(§2) For ‘ex vivo’ studies, animals were randomly selected and euthanized by cervical dislocation and exanguination. The mesenteric arteries were immediately extracted and placed in 4° C. physiological saline solution (PSS, pH=7.4) of the following composition (mmol/L): 119 NaCl, 4.7 KCl, 1.18 KH2PO4, 1.17 MgSO4, 1.5 CaCl2), 24.9 NaHCO3, 0.026 EDTA and 5.5 glucose and small mesenteric arteries (internal diameters of 200-300 μm) were isolated. Human subcutaneous arteries (internal diameters of 300-400 μm) were dissected from the biopsies in the same conditions mentioned above for the mesenteric bed from rodents.
(§3) Small human subcutaneous arteries were obtained from fat biopsies from the gluteal region of hypertensive patients and prepared as described in Example 1. Concentration-response curves for LDN-27219 were constructed as described in Example 4 (FIG. 5B) and relaxation measurements were performed as described in Example 1.

Assay [3] shares this test system. Briefly: Acetylcholine-induced relaxation of human small subcutaneous arteries. To be noted: LDN-27219 3·10^−6 mol/L; acetylcholine 10^−8-10^−5 mol/L. The procedure: as §1, §2, §3
Assay [4] relates to diabetic male BKS(D)-Leprdb/JOrlRj homozygous mice. Briefly: Long-term in vivo treatment of diabetic mice, endothelial function as acetylcholine-induced relaxation of small mesenteric arteries. As to conditions: LDN-27219 8 mg/kg/12 h IP for 3 weeks vs candesartan cilexetil 3 mg/kg/24 h in drinking water. How it is done:
For long-term ‘in vivo’ experiments, stocks of LDN-27219 dissolved in PEG-400 were diluted in saline solution containing SBE-b-CD to improve solubility (9 mg/mL NaCl; 15% (w/v) SBE-b-CD) […], resulting in a final concentration of 2.00 mg/mL of LDN-27219 in 10% PEG-400/90%(15% (w/v) SBE-b-CD in saline solution). For the treatment on the drinking water 1 mg/ml Candesartan cilexetil was dissolved in a vehicle of polyethylene glycol 400 (10% v/v), ethanol (5% v/v), cremophor EL (2% v/v), and tap water (83% v/v) and the pH was adjusted to 9.0 with 0.5 mol/L Na2CO3 prior to dilution to the final concentration in tap water, as previously described (Seltzer A., et al., Brain Res., 2004, 1028(1), 9-18). Final concentrations needed to achieve the desired doses of candesartan cilexetil per day were determined by measuring water consumption each 3-4 days.
For long-term ‘in vivo’ studies, diabetic homozygous mice were randomly allocated into three groups: 1) treatment with Intraperitoneal (IP) injections of LDN-27219 (8 mg/kg/12 h) and vehicle drinking water [LDN-27219 treatment group], or 2) treatment with IP injections of vehicle (each 12 h) and candesartan cilexetil (3 mg/kg/24 h) in the drinking water [candesartan treatment group], or 3) treatment with IP injections of vehicle (each 12 h) and vehicle drinking water [vehicle treatment group]. […]

Turning to `NNC(=O)CSc1nc2scc(-c3ccccc3)c2c(=O)n1-c1ccccc1` [LDN-27219], in assay [1] (U46619 4·10^−7 mol/L, LDN-27219 10^−8-10^−5 mol/L, Z-DON 10^−8-3·10^−4 mol/L, endothelium intact), the “relaxation of U46619 pre-contracted arteries” value is on record as “induced relaxation”. Also, in assay [1] (endothelium removed mechanically), the “relaxation of U46619 pre-contracted arteries without an endothelium layer” value is “significantly reduced relaxation”. Also, the “direct relaxation of human small subcutaneous arteries” value in assay [2] is “direct and dose-dependent relaxation”. Moreover, the “endothelium-derived relaxation induced by acetylcholine, compared to vehicle” value in assay [3] was “improves the endothelium-derived relaxation”. Further, in assay [4], the “prevention of diabetes-related endothelial dysfunction” value is “able to prevent diabetes-related endothelial dysfunction better than the long-term treatment with angiotensin II receptor antagonist candesartan cilexetil”.
